Two substances from paper doi:10.1101/2025.02.17.638454, “Synergistic RAS-MAPK and AKT Activation in MYC-Driven Tumors via Adjacent PVT1 Rearrangements” (bioRxiv, 2025) can be followed below.

No end group written: not given here.

Data set [1] relates to phospho-MEK1/2, phospho-ERK1/2, phospho-p90RSK (RAS/MAPK pathway). Briefly: Western blot of RAS/MAPK effectors in NCI-H1792. The settings on record: NCI-H1792 (mutant KRAS^G12C), doxycycline-induced HNB, 1 μg/mL Dox 48 h. It is filed as cell-based. On the procedure: (§1) For whole-cell lysate, the cell pellet was resuspended in RIPA buffer (Cell Signaling Technologies, Danvers, MA) supplemented with a protease inhibitor cocktail (Cell Signaling Technologies) and incubated on ice for 20 minutes. The lysate was then centrifuged at 14,000 revolutions/minute for 10 minutes at 4°C, and the supernatant was harvested. Protein concentration was quantified by BCA Protein Assay Kit (Thermo Fisher Scientific) as per kit protocol. Next, 20 μg of whole-cell lysate was electrophoresed on a 4%–20% gradient polyacrylamide gel with SDS (Bio-Rad, Hercules, CA) and electroblotted onto polyvinylidene difluoride membranes (Bio-Rad). Membranes were blocked in Tris-buffered saline with 5% nonfat milk and 0.1% Tween and probed with antibodies. Bound proteins were detected with horseradish-peroxidase–conjugated secondary antibodies (Cell Signaling Technologies) and SuperSignal West Femto (Thermo Fisher Scientific). […]
(§2) The HNB ORF and eGFP (control) were cloned in an inducible lentivirus expression, TRE-gateway plasmid (pLIX_403, Addgene, #41395). […] The protein lysates were collected and quantified using the previously described protocol. […] Bound proteins were detected with horseradish-peroxidase–conjugated secondary antibodies (Cell Signaling Technologies) and SuperSignal West Femto (Thermo Fisher Scientific). […]
On the technique in general: A western blot detects proteins with antibodies after separation by electrophoresis.

The test system is the same in data set [2]. Briefly: Western blot of RAS/MAPK effectors in D458. It is filed as cell-based. On the procedure:
as §1, §2

Another data set concerns MYC. In words: Western blot of MYC in SK-PN-DW. It is filed as cell-based, human. The settings on record: si.CircPVT1 vs si.Ctrl, n=3, unpaired t test, 0.0049. How it is done: as §1
Data set [3] relates to HALLMARK_MTORC1_SIGNALING
In words: GSEA MTORC1 signaling, SK-PN-DW. It is filed as cell-based, human. The settings on record: si.CircPVT1 vs si.Ctrl, n=3, Padj = 0.010. The text has this: RNAseq processing: Raw reads were mapped to the hg19 human reference genome using the STAR aligner (v.2.5.0a) 66. PCR-duplicated reads and low mapping quality reads (MQ score below 20) were removed using Picard tools and SAMtools, respectively. Aligned reads were counted using htseq-count (v.0.6.1p1) 69 and normalized according to size factors method from DESeq2 70. We used fold change ≥2 and FDR <0.05 as the determination of differentially expressed genes (DEG). Statistical analysis and plots were performed inside R environment version 3.1.0. upload files) […]
bioRxiv preprint doi: https://doi.org/10.1101/2025.02.17.638454; this version posted February 22, 2025. The copyright holder for this preprint (which was not certified by peer review) is the author/funder, who has granted bioRxiv a license to display the preprint in perpetuity. It is made available under a CC-BY 4.0 International license . […]
Supplementary Figure 11: Gene set enrichment analysis scores (GSEA) analysis of genes involved in MTORC 1 signaling in COLO320DM (A) and SK-PN-DW (B) treated with si.CircPVT 1. si.Ctrl was used as control. n=3, for each treatment condition .
(also on this page, place not known: SK-PN-DWB MTORC1 si.CircPVT1. condition. Enrichment Score Enrichment Score .CC-BY licenseavailable preprintthis https://doi.org/10.1101/2025.02.17.638454doi:) […]

In the case of MKTQLGAVKGFLHV [HNB], the “phosphorylation of MEK1/2, ERK1/2 and p90RSK” value is recorded as “significantly dampened the phosphorylation” in data set [1] and “significantly dampened the phosphorylation” in data set [2] (D458 (wild type KRAS), doxycycline-induced HNB, 1 μg/mL Dox 48 h, n=3, unpaired t-test). For the same substance, the ERK1/2 phosphorylation entry in data set [2] (D458, ectopic (doxycycline-inducible) expression, HNB vs mutant, Figure 5L) is recorded as “significantly diminished ERK1/2 phosphorylation”.

On to “si.CircPVT1: siRNA targeting the junction sequence of CircPVT1, 5’-UGGGCUUGAGGCCUGAUCUUU-3’ (other strand not given here)”, for which the MYC protein entry in the data set with MYC is recorded as “significant reduction of MYC protein”. Besides, the “NES, HALLMARK_MTORC1_SIGNALING” value in data set [3] was -1.859.
